Measured values as given in patent US20050148069A1, “IGF-1 instructs multipotent adult CNS neural stem cells to an oligodendroglial lineage” (priority 2003, published 2005).

Assays:
[1] = system: adult hippocampus-derived neural progenitor cells; assay: mathematical model of proliferation and differentiation rates; parameters: species or system rat; conditions: 500 ng/ml IGF-I
Description: Therefore, to separate the IGF-I effects on proliferation of progenitors from the instructive differentiation of progenitors to oligodendrocytes, we developed a mathematical model (as shown in FIG. 4A). This modeling approach has previously been used to quantify the effects of hippocampal astrocytes on the proliferation and neuronal differentiation of adult neural progenitor cells (Song et al., 2002). To distinguish the proliferation and differentiation rates, the model required that we count the number of RIP+ cells that were either positive or negative for BrdU at each time point. […] Because of this finding, we decided to separate the proliferation rate of RIP− (defined as α) and RIP+ cells (γ), as well as the differentiation rate (β) of RIP− to RIP+ cells. The overall death rate measured by Hoechst dye in live cultures could not be experimentally separated into a RIP− death rate (δ) and a RIP+ death rate (ε) (Song et al., 2002). Therefore, the model was bounded by the two possibilities that all cell death is from only RIP− or only RIP+ cells. We also considered the more probable assumption that the death rates for both RIP− and RIP+ cells were equal.
Six equations were used to derive values for these rates. The first equation describes the differential gain in RIP− cells: dN^RIP−/dt=(α−δ)N^RIP−−βN^RIP− (b 1) where N^RIP−is the number of RIP− cells, α is the proliferation rate of RIP− cells (per 12-h interval), β is the differentiation rate of RIP− into RIP+ cells, and δ is the death rate of RIP− cells. Similarly for RIP+ cells, dN^RIP+/dt=(γ−ε)N^RIP++βN^RIP− (2) where N^RIP+ is the number of RIP+ cells, […] is a proliferation rate of RIP+ cells, and ε is the RIP+ death rate. The sum of (1) and (2) is the equation defining total cell count: dN^Total/dt=(α−δ)N^RIP−+(γ−ε)N^RIP+ (3)
The time-course experiments were performed in 12-h intervals, allowing for measurement of the proliferation and differentiation rates at each 12-h time interval—αi is the proliferation rate of RIP− cells at time ‘i’ and so forth. […]

Noggin = assay: quantitative real time PCR, Noggin expression; type: cell-based, rat; conditions: 500 ng/ml IGF-I, up to 48 hours, normalized to GAPDH
Description: (§1) If IGF-I induction of oligodendrocyte differentiation involves the inhibition of BMP signaling, a change in the expression of BMP antagonists after IGF-I treatment might be observed. In addition to extracellular antagonists of BMP signaling, such as Noggin, intracellular proteins that can interfere with downstream BMP receptor signaling, called inhibitory Smads (Smad6, 7), have also been identified (Christian and Nakayama, 1999). Therefore, we performed Q-PCR analyses of cultures treated with IGF-I after various time points (up to 48 hours) and examined the relative fold change (normalized to an internal control; see Methods) of Noggin, Smad6, 7 (FIG. 6, A-C). Expression of Noggin, Smad6, 7 increased by at least 6-, 5-, and 2-fold, respectively, after IGF-I treatment (p<0.05, t-test). There may be an unexplained downregulation of Smad6 at the 48-h time point.
(§2) Total RNA was isolated from cell cultures using RNeasy columns (Qiagen). For real-time quantitative PCR, reactions were carried out essentially as described (Zhao et al., 2001). The relative amount of the tested message was normalized to the level of the internal control message, GAPDH. […] Primer sequences are available upon request.

Smad6 = assay: quantitative real time PCR, Smad6 expression; type: cell-based, rat; conditions: 500 ng/ml IGF-I, up to 48 hours, normalized to GAPDH
Description: as §1, §2

Smad7 = assay: quantitative real time PCR, Smad7 expression; type: cell-based, rat; conditions: 500 ng/ml IGF-I, up to 48 hours, normalized to GAPDH
Description: as §1, §2

Substance: IGF-I: human recombinant IGF-I (R&D Systems), growth factor polypeptide
- differentiation rate (β) of RIP− to RIP+ cells [1]: increase in differentiation rate
- proliferation rate (γ) of RIP+ cells [1]: increase in the proliferation rate
- proliferation rate of RIP− cells (α) [1]: no increase in the proliferation rate of RIP− cells
- relative fold change of Noggin expression (Noggin): at least 6 fold
- relative fold change of Smad6 expression (Smad6): ≥ 5 fold
- relative fold change of Smad7 expression (Smad7): ≥ 2 fold
